According to patent US8680157B2, “Androgen receptor-dependent gene expression control” (Universitaetsklinikum Freiburg, priority 2005, dated 2014):

Assays:
[1] = tested on: LSD1-induced activation of AR; assay: Transient transfection, AR-dependent luciferase reporter with co-expressed LSD1 and AR in 293 cells; type: cell-based; details: R1881, 3×10^−3 M pargyline, 1×10^−3 M deprenyl or 1×10^−4 M chlorgyline, 18 hours, FIG. 4e
Procedure: 293 and CV-1 cells were cultured and transfected as described^13. LNCaP cells were cultured in phenol-red-free RPMI1640 supplemented with 10% double-stripped fetal calf serum (dsFCS) and transfected with Effectene (Qiagen). The following amounts per well were used: MMTV-LUC, ARE2x-TATA-LUC, ARE2x-TK-LUC, TK-LUC, PSA-LUC, Slp-ARU-TATA-LUC 500 ng each, 25 ng expression plasmids for AR; 500 ng expression plasmids for LSD1 1-174, LSD1 175-246, LSD1 247-852, pSUPER-control, and pSUPER-LSD1; 100 to 500 ng expression plasmids for LSD1 were transfected per well. […] Luciferase activity was assayed as described^14. All experiments were repeated at least five times in duplicate.

LSD1 = biological target: T1, LSD1 (Homo sapiens, UniProt O60341); assay: Chromatin immunoprecipitation (ChIP) at the PSA promoter in LNCaP cells; type: cell-based
T1 construct: endogenous in cells; host or cells: LNCaP
Procedure: ChIP experiments were performed essentially as described^15. […] LNCaP cells were transfected three days before harvesting for ChIP with or without siRNA (Qiagen) following the manufacture's instructions. Immunoprecipitation was performed with specific antibodies (α-monoMeK9H3, α-diMeK9H3, α-triMeK9H3, α-monoMeK4H3, α-diMeK4H3, α-triMeK4H3, α-H3 (abcam), α-LSD1, and α-AR PG21 (Upstate Biotechnology) on GammaBind™-Sepharose 4B (GE-Healthcare). For PCR, 1-5 μl out of 50 μl DNA extract was used. For Re-ChIP assays, immunoprecipitations were sequentially washed with TSE I, TSE II, buffer III, and TE^15. Complexes were eluted by incubation with 10 mM DTT at 37° C. for 30 min, diluted 50 times with dilution buffer^15 followed by a second immunoprecipitation with the indicated antibody. Primer sequences were as follows: middle; PSA (−2223/−1951) 5′-[…]-3′ and 5′-[…]-3′; PCR primers for ARE I+II (PSA (−459/−121)) and ARE III (PSA (−4288/−3922)) have been described previously^16.

[2] = pargyline, R1881, FIG. 3d and data not shown

Structure (SMILES) | LSD1-induced ligand-dependent activation of AR (reporter activity) [1] | demethylation of mono- and dimethyl H3-K9 during androgen-induced transcription (LSD1; PSA promoter, pargyline 18 hours, 10^−8 M R1881 210 min, FIG. 3d) | methylation levels of trimethyl H3-K9 (LSD1; PSA promoter, pargyline 18 hours, R1881, FIG. 3d) | methylation status of H3-K27 (LSD1; [2]) | methylation status of H4-K20 (LSD1; [2])
C#CCN(C)CCCOc1ccc(Cl)cc1Cl [clorgyline, N-methyl-N-propargyl-3-(2,4-dichlorophenoxy-)propylamine] | severely impair |  |  |  | 
C#CCN(C)[C@H](C)Cc1ccccc1 [deprenyl, (R)-(−)-N,2-dimethyl-N-2-propynylphenethylamine] | severely impair |  |  |  | 
C#CCN(C)Cc1ccccc1 [pargyline, N-methyl-N-2-propynyl-benzylamine] | severely impair | blocks | remains unchanged | remains unchanged | remains unchanged
